Test system: ME 180 cell line
Assay: viability (tetrazolium dye, mitochondrial function)
Type: cell-based
Conditions: Homo sapiens, 96 hours, read-out: MTS IC50

| SMILES | IC50 [nM] |
| --- | --- |
| CC(/C=C/C=C1\CCCc2cc3c(cc21)C(C)(C)CCC3(C)C)=C\C(=O)O [Compound 109b, (2E,4E)-3-Methyl-6-[(E)-3,4,5,6,7,8-hexahydro-5,5,8,8-tetramethyl-2H-anthracen-1-ylidene]hexa-2,4-dienoic acid] | 100 |
| CC(/C=C/C=C1/CCOc2cc3c(cc21)C(C)(C)CCC3(C)C)=C\C(=O)O [Compound 144b] | 10 |
| CC(/C=C/C=C1/CCCc2cc3c(cc21)C(C)(C)CCC3(C)C)=C\C(=O)O [Compound 101b, (2E,4E)-3-Methyl-6-[(Z)-3,4,5,6,7,8-hexahydro-5,5,8,8-tetramethyl-2H-anthracen-1-ylidene]hexa-2,4-dienoic acid] | 75 |
| CC(/C=C/C=C1\CCOc2cc3c(cc21)C(C)(C)CCC3(C)C)=C\C(=O)O [Compound 119b, (2E,4E)-3-Methyl-6-[(E)-2,3,6,7,8,9-hexahydro-6,6,9,9-tetramethylbenzo[g]chromen-4-ylidene]hexa-2,4-dienoic acid] | 2 |

From patent EP0933350A1, “Tricyclic retinoids, methods for their production and use” (LIGAND PHARMACEUTICALS INCORPORATED, priority 1994, dated 1996)
